Results on seven molecules are retold here after PubChem BioAssay (NCI).

Among the test systems are SK-OV-3 ovarian; ACHN renal; NCI-H23 lung; UO-31 renal; TK-10 renal; T-47D breast; HS 578T breast; COLO 205 colon; CCRF-CEM leukemia; EKVX NSCLC.
Holding throughout (assay): growth of human tumour cells (NCI), 48 h

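Briefly, cells in 96-well plates were exposed to five compound concentrations for 48 h, and endpoints were estimated by linear interpolation. Abbreviation: GI50, concentration required for 50% inhibition of growth. TGI marks complete inhibition of growth.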 Some results are limits rather than exact numbers.

Take `Nc1c(C(=O)c2cccc(C#CCN3CCOCC3)c2)cnn1-c1ccc(F)cc1`: the GI50 was over 25 µM with SK-OV-3 ovarian; over 25 µM in the assay with ACHN renal; over 25 µM with NCI-H23 lung; over 25 µM in the assay on UO-31 renal; over 23.4 µM with TK-10 renal; 8.83 µM with T-47D breast. The GI50 in the assay on HS 578T breast was over 25 µM; in the assay on COLO 205 colon, 7.97 µM. Also, the TGI in the assay on SK-OV-3 ovarian, in the assay with ACHN renal, in the assay with NCI-H23 lung, with UO-31 renal, in the assay on TK-10 renal and in the assay with T-47D breast was over 25 µM in each case. Also, the TGI in the assay with HS 578T breast and in the assay on COLO 205 colon was over 25 µM throughout.

As for `CC[C@H](C)[C@H](NC(=O)Nc1ccccc1)C(=O)N(C)[C@H](C[C@@H](OC(C)=O)c1nc(C(=O)N[C@@H](Cc2ccccc2)C[C@H](C)C(=O)OC)cs1)C(C)C`, the GI50 with SK-OV-3 ovarian was 5.13 µM; with ACHN renal, 8.09 µM; in the assay with CCRF-CEM leukemia, 2.25 µM; in the assay on NCI-H23 lung it was 5.8 µM; in the assay on UO-31 renal, 6.82 µM; in the assay with TK-10 renal, 9.56 µM. The values for the GI50 in the assay with HS 578T breast, in the assay on COLO 205 colon and with EKVX NSCLC were 2.47 µM, 3.17 µM and 5.36 µM, respectively. The TGI with SK-OV-3 ovarian, with ACHN renal, in the assay with CCRF-CEM leukemia, in the assay with NCI-H23 lung, with UO-31 renal and with TK-10 renal was over 100 µM in each case. For the same molecule, the values for the TGI in the assay on HS 578T breast, in the assay on COLO 205 colon and with EKVX NSCLC were 8.73 µM, 18.2 µM and over 100 µM, respectively.

For `O=Cc1ccc(Oc2c3ccccc3nc3occc23)cc1`, the GI50 with SK-OV-3 ovarian was 21.6 µM; in the assay on CCRF-CEM leukemia it was 13.8 µM; in the assay on NCI-H23 lung, 15 µM; in the assay on UO-31 renal, 26.4 µM; with TK-10 renal, 3.83 µM; in the assay on T-47D breast, 11.4 µM. The GI50 in the assay on HS 578T breast was 13.4 µM; in the assay on COLO 205 colon, 21.8 µM. In addition, the TGI in the assay on SK-OV-3 ovarian is 57 µM; in the assay on CCRF-CEM leukemia, 35.4 µM; with NCI-H23 lung, 36 µM; in the assay with UO-31 renal, over 100 µM; in the assay with TK-10 renal it was 21 µM; with T-47D breast it was 36.3 µM. Besides, the results for the TGI in the assay on HS 578T breast and in the assay on COLO 205 colon were 51.6 µM and 63 µM, respectively.

With `O=C(NC(=S)NNC(=S)NNc1ccccc1)c1ccccc1`, the GI50 was 44.2 µM in the assay with SK-OV-3 ovarian; 10.1 µM with ACHN renal; 5.33 µM with CCRF-CEM leukemia; 4.69 µM in the assay with UO-31 renal; 35.4 µM in the assay on TK-10 renal; 3.24 µM with T-47D breast. Moreover, the GI50 with HS 578T breast was 1.55 µM; in the assay on COLO 205 colon it was 9.81 µM. The TGI in the assay with SK-OV-3 ovarian, in the assay with ACHN renal, in the assay with CCRF-CEM leukemia, in the assay on UO-31 renal, with TK-10 renal and in the assay on T-47D breast was over 100 µM in each case. Moreover, the TGI with HS 578T breast and in the assay on COLO 205 colon was over 100 µM each time.

For the molecule `ClC1=NC(Cl)C(Cl)=N/C1=N\c1ncn[nH]1` (centres undefined), the GI50 in the assay with SK-OV-3 ovarian is 15.5 µM; with ACHN renal it was 1.88 µM; with UO-31 renal it was 1.68 µM; with TK-10 renal, 1.92 µM; with T-47D breast, 1.9 µM; with HS 578T breast, 14.3 µM. Besides, in the assay with COLO 205 colon, the GI50 is 2.28 µM. For the same molecule, the TGI came out at 29 µM with SK-OV-3 ovarian; 3.48 µM in the assay with ACHN renal; 3.25 µM in the assay on UO-31 renal; 3.44 µM with TK-10 renal; 3.91 µM in the assay with T-47D breast; 61 µM in the assay on HS 578T breast. In the assay on COLO 205 colon, this molecule returned a TGI of 4.55 µM.

Regarding `CCN(C(=O)CCl)C(C)(C)C(SSSC(c1ccc(Cl)cc1)C(C)(C)N(CC)C(=O)CCl)c1ccc(Cl)cc1` (centres undefined), the GI50 is 15.3 µM in the assay with SK-OV-3 ovarian; 4.78 µM in the assay on ACHN renal; 2.45 µM in the assay with CCRF-CEM leukemia; 3.88 µM in the assay with UO-31 renal; 2.5 µM in the assay on TK-10 renal; 5.3 µM in the assay on T-47D breast. Further, the GI50 is 3.36 µM in the assay on HS 578T breast and 7.21 µM in the assay with COLO 205 colon. Further, the TGI is 31.5 µM in the assay on SK-OV-3 ovarian; 16.9 µM in the assay on ACHN renal; 5.93 µM with CCRF-CEM leukemia; 15.3 µM in the assay with UO-31 renal; 7.92 µM with TK-10 renal; 26.3 µM with T-47D breast. For the same molecule, the TGI came out at 18.8 µM in the assay on HS 578T breast and 24.8 µM with COLO 205 colon.

Consider `COc1cc2nc(N3CCCC3)nc(Nc3ccccc3)c2cc1OC`, for which the GI50 in the assay with SK-OV-3 ovarian is 1.99 µM; in the assay with ACHN renal, 1.38 µM; in the assay with CCRF-CEM leukemia it was 0.329 µM; in the assay on NCI-H23 lung, 1.93 µM; in the assay on UO-31 renal, 1.39 µM; in the assay on TK-10 renal, 1.88 µM. Moreover, the figures for the GI50 in the assay on HS 578T breast, in the assay on COLO 205 colon and with EKVX NSCLC were 1.97 µM, 1.3 µM and 1.88 µM, respectively. The TGI was 3.72 µM in the assay with SK-OV-3 ovarian; 2.67 µM with ACHN renal; 3.09 µM in the assay with CCRF-CEM leukemia; 3.76 µM in the assay with NCI-H23 lung; 2.84 µM in the assay on UO-31 renal; 3.37 µM in the assay on TK-10 renal. In addition, the TGI with HS 578T breast came to 4.45 µM; with COLO 205 colon, 3.96 µM; with EKVX NSCLC, 3.53 µM.
